# pIC50: −log10 of the molar value. Starred links: 1 amine or outer side, 2 acyl side, 3 side chain; linkers in the order of their positions; H or OH if unused. Positions of bridges follow the written chain, without caps; N, C: chain ends. Non-standard residues stand in square brackets, D forms with d. Residues, ends and D or L forms follow the SMILES beside them. ξ: configuration not given here. Trp(5-F) = N[C@@H](Cc1c[nH]c2ccc(F)cc12)C(=O)O; X10 = O=C(CCSCc1ccc2ccc(CSCCN[*:1])cc2c1)[*:2]; dPro(cis-4-NH2) = N[C@H]1CN[C@@H](C(=O)O)C1; Dip = N[C@H](C(=O)O)C(c1ccccc1)c1ccccc1; Lys(N3) = [N-]=[N+]=NCCCC[C@H](N)C(=O)O; X4 = O=C(CCSCc1cccc(CSCCN[*:1])c1)[*:2]; AEF = NCCOc1ccc(C[C@H](N)C(=O)O)cc1; Glutaryl = O=C(CCCC(=O)[*:2])[*:1]; X39 = c1cc(CCSCN[*:2])cc(C[*:1])c1; X34 = O=C(CCC1CCN([*:1])CC1)[*:2]; X41 = O=C(Cc1ccc(N[*:1])cc1)[*:2]; X6 = O=C(Cc1ccc(CN[*:2])cc1)[*:1]; X7 = O=C(Cc1ccc(CN[*:1])cc1)[*:2]; Aad = N[C@@H](CCCC(=O)O)C(=O)O; αMeP = C[C@@]1(C(=O)O)CCCN1; Dab = NCC[C@H](N)C(=O)O; ξD = NC(CC(=O)O)C(=O)O; X2 = O=C(C[*:2])[*:1]; Mpa = O=C(O)CCS
# What was measured:
# [1] = target: human PCSK9 / human LDLR EGFa domain interaction (Homo sapiens (Human), UniProt Q8NBP7); test: TR-FRET assay of inhibition of the PCSK9-LDLR protein-protein interaction; assay type: binding; conditions: TR-FRET, 20 nM human PCSK9, 20 nM human LDLR EGFa domain, 2 hours room temperature; read-out: IC50
# Sequence of human PCSK9 / human LDLR EGFa domain interaction (Q8NBP7 153-692): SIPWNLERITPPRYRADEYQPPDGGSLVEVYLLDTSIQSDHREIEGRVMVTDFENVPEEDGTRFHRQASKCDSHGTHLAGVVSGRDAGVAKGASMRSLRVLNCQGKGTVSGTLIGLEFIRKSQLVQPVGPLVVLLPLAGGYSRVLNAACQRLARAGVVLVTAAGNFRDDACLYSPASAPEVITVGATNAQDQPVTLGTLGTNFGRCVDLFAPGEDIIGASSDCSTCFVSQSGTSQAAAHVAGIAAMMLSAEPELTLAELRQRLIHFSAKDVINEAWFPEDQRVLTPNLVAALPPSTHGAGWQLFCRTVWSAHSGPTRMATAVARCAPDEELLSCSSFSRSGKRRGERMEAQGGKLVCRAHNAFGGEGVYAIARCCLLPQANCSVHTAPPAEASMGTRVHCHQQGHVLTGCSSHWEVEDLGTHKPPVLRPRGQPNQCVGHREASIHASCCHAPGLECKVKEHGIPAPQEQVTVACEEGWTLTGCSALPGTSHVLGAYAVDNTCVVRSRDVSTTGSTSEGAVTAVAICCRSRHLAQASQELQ
# Sequence of human PCSK9 / human LDLR EGFa domain interaction (Q8NBP7 31-152 partner): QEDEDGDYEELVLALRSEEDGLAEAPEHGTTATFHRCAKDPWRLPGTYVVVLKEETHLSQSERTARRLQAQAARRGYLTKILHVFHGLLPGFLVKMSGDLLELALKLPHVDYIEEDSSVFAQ
# Method in brief: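 Biotinylated PCSK9 (20 nM) and His-tagged LDLR EGFa domain (20 nM) were incubated 2 h at room temperature with 5 nM Ulight-streptavidin and 5 nM Eu-anti-His in HEPES/NaCl/CaCl2 buffer with 0.01% BSA and 0.01% P20. TR-FRET was read; half-maximal inhibitory concentrations came from 4-parameter dose-response fits.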
# [2] = target: PCSK9 (Homo sapiens (Human), UniProt Q8NBP7); test: PCSK9 Alexa FRET Standard assay (displacement of AlexaFluor647 tagged cyclic peptide Reagent A); assay type: binding; conditions: PCSK9 Alexa FRET Standard assay, 0.5 nM PCSK9, 20 nM AF cyclic peptide Reagent A; read-out: IC50
# Sequence of PCSK9 (Q8NBP7 153-692): as the sequence (Q8NBP7 153-692) above
# Method in brief: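 TR-FRET displacement: 0.5 nM biotinylated PCSK9 with 1.25 nM Strep-Eu and 20 nM AlexaFluor-tagged cyclic peptide (final) in 50 mM HEPES pH 7.4, 0.15 M NaCl, 5 mM CaCl2, 0.01% BSA, 0.01% P20, ≥2 h at room temperature. IC50 from sigmoidal fit, converted to Ki via peptide KD; falling Eu counts flagged false positives.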
Compound,pIC50 [1],pIC50 [2]
COc1ccc(C[C@@H]2NC(=O)[C@H](Cc3cnc[nH]3)NC(=O)[C@H](CC(=O)O)NC(=O)[C@H](Cc3c[nH]c4ccc(F)cc34)NC(=O)[C@H](Cc3c[nH]c4ccc(F)cc34)NC(=O)[C@H](C)NC(=O)[C@H](NC(C)=O)CCCc3cn(nn3)-c3ccc(cc3)C[C@@H](C(N)=O)NC(=O)[C@]3(C)CCCN3C2=O)cc1 [Compound 395],4.30 to 4.68,4.30 to 4.68
COc1ccc(C[C@@H]2NC(=O)[C@H](Cc3cnc[nH]3)NC(=O)[C@H](CC(=O)O)NC(=O)[C@H](Cc3c[nH]c4ccc(F)cc34)NC(=O)[C@H](Cc3c[nH]c4ccc(F)cc34)NC(=O)[C@@H](C)NC(=O)[C@H](NC(C)=O)CCCCNC(=O)Cc3ccc(cc3)CNC(=O)C[C@@H](C(N)=O)NC(=O)[C@]3(C)CCCN3C2=O)cc1 [Compound 397] (Ac-[dK][dA][Trp(5-F)][Trp(5-F)]DHY(Me)[αMeP]D-NH2; linker 1-9 via X6),4.92 to 6.00,4.92 to 6.00
COc1ccc(C[C@@H]2NC(=O)[C@H](Cc3cnc[nH]3)NC(=O)[C@H](CC(=O)O)NC(=O)[C@H](Cc3c[nH]c4ccc(F)cc34)NC(=O)[C@H](Cc3c[nH]c4ccc(F)cc34)NC(=O)[C@@H](C)NC(=O)Cc3ccc(cc3)CNC(=O)C[C@@H](C(N)=O)NC(=O)[C@]3(C)CCCN3C2=O)cc1 [Compound 403] ([X7][dA][Trp(5-F)][Trp(5-F)]DHY(Me)[αMeP]D-NH2; lactam N-9),6.00 to 7.00,4.92 to 6.00
COc1ccc(C[C@@H]2NC(=O)[C@H](Cc3cnc[nH]3)NC(=O)[C@H](CC(=O)O)NC(=O)[C@H](Cc3c[nH]c4ccc(F)cc34)NC(=O)[C@H](Cc3c[nH]c4ccc(F)cc34)NC(=O)[C@H](C)NC(=O)CCC3CCN(CC3)C(=O)[C@H](CC(N)=O)NC(=O)[C@]3(C)CCCN3C2=O)cc1 [Compound 404] (cyclo(A[Trp(5-F)][Trp(5-F)]DHY(Me)[αMeP]N[X34])),6.00 to 7.00,4.92 to 6.00
COc1ccc(C[C@@H]2NC(=O)[C@H](Cc3cnc[nH]3)NC(=O)[C@H](CC(=O)O)NC(=O)[C@H](Cc3c[nH]c4ccc(F)cc34)NC(=O)[C@H](Cc3c[nH]c4ccc(F)cc34)NC(=O)[C@@H](C)NC(=O)[C@H](CCCCN)NC(=O)CCSCc3ccc4ccc(cc4c3)CSCCNC(=O)[C@]3(C)CCCN3C2=O)cc1 [Compound 405] (cyclo(DHY(Me)[αMeP][X10]K[dA][Trp(5-F)][Trp(5-F)])),7.00 to 10.00,6.00 to 7.00
C[C@H]1NC(=O)[C@H](CCCCN)NC(=O)CCSCc2cccc(c2)CSCCNC(=O)[C@]2(C)CCCN2C(=O)[C@H](C(c2ccccc2)c2ccccc2)NC(=O)[C@H](Cc2cnc[nH]2)NC(=O)[C@H](CC(=O)O)NC(=O)[C@H](Cc2c[nH]c3ccc(F)cc23)NC(=O)[C@H](Cc2c[nH]c3ccc(F)cc23)NC1=O [Compound 406] (cyclo(DH[Dip][αMeP][X4]K[dA][Trp(5-F)][Trp(5-F)])),7.00 to 10.00,6.00 to 7.00
COc1ccc(C[C@@H]2NC(=O)[C@H](Cc3cnc[nH]3)NC(=O)[C@H](CC(=O)O)NC(=O)[C@H](Cc3c[nH]c4ccc(F)cc34)NC(=O)[C@H](Cc3c[nH]c4ccc(F)cc34)NC(=O)[C@@H](C)NC(=O)[C@H](CCCCN)NC(=O)[C@@H](NC(C)=O)CCNC(=O)COc3ccc(cc3)C[C@@H](C(N)=O)NC(=O)[C@]3(C)CCCN3C2=O)cc1 [Compound 409] (Ac-[Dab]K[dA][Trp(5-F)][Trp(5-F)]DHY(Me)[αMeP]Y-NH2; linker 1-10 via X2),7.00 to 10.00,6.00 to 7.00

# Results, then the compound that gave them:
pIC50 [1],pIC50 [2],Compound
6.00 to 7.00,4.92 to 6.00,COc1ccc(C[C@@H]2NC(=O)[C@H](Cc3cnc[nH]3)NC(=O)[C@H](CC(=O)O)NC(=O)[C@H](Cc3c[nH]c4ccc(F)cc34)NC(=O)[C@H](Cc3c[nH]c4ccc(F)cc34)NC(=O)[C@@H](C)NC(=O)CCCC(=O)NCCOc3ccc(cc3)C[C@@H](C(N)=O)NC(=O)[C@]3(C)CCCN3C2=O)cc1 [Compound 400] ([dA][Trp(5-F)][Trp(5-F)]DHY(Me)[αMeP][AEF]-NH2; linker N-8 via Glutaryl)
4.92 to 6.00,4.92 to 6.00,COc1ccc(C[C@@H]2NC(=O)[C@H](Cc3cnc[nH]3)NC(=O)[C@H](CC(=O)O)NC(=O)[C@H](Cc3c[nH]c4ccc(F)cc34)NC(=O)[C@H](Cc3c[nH]c4ccc(F)cc34)NC(=O)[C@@H](C)NC(=O)Cc3ccc(cc3)NC(=O)CC(C(=O)O)NC(=O)[C@]3(C)CCCN3C2=O)cc1 (some centres unmarked) [Compound 402] ([X41][dA][Trp(5-F)][Trp(5-F)]DHY(Me)[αMeP][ξD]-OH; lactam N-9)
4.30 to 4.68,4.30 to 4.68,COc1ccc(C[C@@H]2NC(=O)[C@H](CCCC(=O)O)NC(=O)[C@H]3C[C@@H](N)CN3C(=O)[C@H](Cc3c[nH]c4ccc(F)cc34)NC(=O)[C@H](Cc3c[nH]c4ccc(F)cc34)NC(=O)[C@@H](C)NC(=O)[C@H](CCCCN=[N+]=[N-])NC(=O)CCSCc3cccc(c3)CCSCNC(=O)[C@]3(C)CCCN3C2=O)cc1 [Compound 408] ([Mpa][Lys(N3)][dA][Trp(5-F)][Trp(5-F)][dPro(cis-4-NH2)][Aad]Y(Me)[αMeP]; linker 1-C via X39)
